≈ marks a conversion by molar mass, not a printed value. Where two headings read alike, the source gives them in different places.
What was measured:
[1] = test system: colo320 colorectal cancer tumor model; conditions: 5 mg/kg once a week for four weeks
Procedure: Test objective: To investigate the antitumor efficacy of the above compounds in an animal tumor model of colo320 colorectal cancer.
(§1) Test drug: Polypeptide conjugate, Irinotecan, Belotecan and normal saline control group.
(§2) Test animals: 6-8 weeks old BALB/c mice, all female.
(§3) Passaging was performed every three days, and cells within 15 generations were used. 7.5×10^6 corresponding cells were injected into right chests of nude mice subcutaneously. After a volume of the tumors reached at least 120 mm^3, the mice were grouped randomly, with three mice in each group. Then treatment was started, and the day when the treatment was started was the first day. […] The control group was administered with normal saline. Administration was performed once a week for four weeks.

[2] = test system: sarcoma SJSA-1 tumor model; conditions: 5 mg/kg once a week for three weeks
Procedure: Test objective: To investigate the antitumor efficacy of the above compounds in an animal tumor model of sarcoma SJSA-1.
as §1, §2
as §3, with “SJSA-1 cells were purchased from ATCC and cultured in a DMEM medium containing 10% fetal bovine serum at 37° C. in 5% CO2. Passaging” for “Passaging”, “2×10^7” for “7.5×10^6”, “100” for “120”, “three” for “four”
as §3, with “SJSA-1 cells were purchased from ATCC and cultured in a DMEM medium containing 10% fetal bovine serum at 37° C. in 5% CO2. Passaging” for “Passaging”, “2×10^7” for “7.5×10^6”, “100” for “120”, “three” for “four”

[3] = test system: colo320 (colorectal cancer tissue); assay: cells; assay type: cell-based; conditions: CCK8, 48 h; Table 6
Procedure: (§4) Different types of cells were cultured with complete media (RPMI1640 (DMEM high sugar medium)+10% fetal bovine serum+1×P/S+sodium pyruvate 1 mM solution) in an incubator at 37° C. and 5% CO2 until the cells grew to a sufficient number, and the cells were collected, centrifuged at 1,000 g for 5 min, resuspended with an appropriate volume of a 10% RMPI1640 (DMEM high sugar medium) medium and adjusted to an appropriate density. In a 96-well culture plate, 100 μL of cell culture fluid containing different concentrations of drugs was added, control wells (0.1% DMSO) with only corresponding drug solvents without drugs, as well as blank wells (Blank) with only the medium but without cells were set, and three parallel wells were set in each group. After that, the cells after cell counting were inoculated onto 96-well culture plates, with 100 μL of cell suspension per well, and an inoculation concentration of the cells was 5,000 cells (100 μL)/well. The plates were then cultured in a CO2 (5%) incubator at 37° C. for 48 h. After 48 h, 10 μL of a cell proliferation staining reagent (CCK8) was added to each well, the plates were incubated in a cell incubator for around 2 h, and an absorbance at 450 nm was detected.
(§5) Cell survival rates and median inhibitory concentrations (IC50) of the drugs on the cells were calculated.

[4] = MTD determination in mice (Examples 27, 36, 44); assay type: in vivo; conditions: mice, monitored for 14 d
Description: Test animals: 6-8 weeks old mice, all female; mice were grouped randomly, with six mice in each group, administered with drugs at different concentration gradients separately and monitored for 14 d. A mouse was euthanized at a loss of 20% of its initial weight and deemed to have died of poisoning.

SJSA-1 (sarcoma tissue) = assay: cells; assay type: cell-based; conditions: CCK8, 48 h; for IC50 SJSA-1 (sarcoma tissue): Table 1; for IC50 Sarcoma tissue (SJSA-1): Table 6
Procedure: as §4, with “serum+1XP/S+sodium” for “serum+1×P/S+sodium”, “counted.” for “adjusted to an appropriate density.”
(§6) Cell survival rates and median inhibitory concentrations of the drugs on the cells were calculated.
as §4, §5

A2780 (ovarian cancer) = assay: cells; assay type: cell-based; conditions: CCK8, 48 h; for IC50 A2780 (ovarian cancer): Table 1; for IC50 Ovarian cancer tissue (A2780): Table 6
Procedure: as §4, with “serum+1XP/S+sodium” for “serum+1×P/S+sodium”, “counted.” for “adjusted to an appropriate density.”
as §6, §4, §5

[5] = test system: A549 (non-small cell lung cancer); assay: cells; assay type: cell-based; conditions: CCK8, 48 h; for IC50 A549 (non-small cell lung cancer): Table 1; for IC50 Non-small cell lung cancer tissue (A549): Table 6
Procedure: as §4, with “serum+1XP/S+sodium” for “serum+1×P/S+sodium”, “counted.” for “adjusted to an appropriate density.”
as §6, §4, §5

[6] = test system: SKBR3 (breast cancer tissue); assay: cells; assay type: cell-based; conditions: CCK8, 48 h; for IC50 SKBR3 (breast cancer tissue): Table 1; for IC50 Breast cancer tissue (SKBR3): Table 6
Procedure: as §4, with “serum+1XP/S+sodium” for “serum+1×P/S+sodium”, “counted.” for “adjusted to an appropriate density.”
as §6, §4, §5

CCNCCc1c2c(nc3ccccc13)-c1cc3c(c(=O)n1C2)COC(=O)[C@]3(O)CC [D2]
Mouse weight (%) ([1]; Table 3): −7%
colo320 (colorectal cancer cell) growth rate (%) ([1]; Table 3): 946.13%
colo320 (colorectal cancer cell) mean tumor volume (mm^3) ([1]; Table 3): 1047.9 mm^3
Mouse weight (%) ([1]; Table 8): −7%
colo320 (colorectal cancer cell) growth rate (%) ([1]; Table 8): 946.13%
colo320 (colorectal cancer cell) mean tumor volume (mm^3) ([1]; Table 8): 1047.9 mm^3
Mouse weight (%) ([2]; Table 2): −8%
SJSA-1 (sarcoma tissue) mean tumor volume (mm^3) ([2]; Table 2): 1176.5 mm^3
SJSA-1 (sarcoma) Growth rate (%) ([2]; Table 2): 1018.01%
Mouse weight (%) ([2]; Table 7): −8%
SJSA-1 (sarcoma tissue) growth rate (%) ([2]; Table 7): 1018.01%
SJSA-1 (sarcoma tissue) mean tumor volume (mm^3) ([2]; Table 7): 1176.5 mm^3
IC50 Colorectal cancer tissue (colo320) [3]: 0.051 µg/mL (≈ 0.122 µM)
MTD ([4]; Table 4): 25 mg/kg
MTD ([4]; Table 9): 25 mg/kg
IC50 SJSA-1 (sarcoma tissue) (SJSA-1 (sarcoma tissue)): 0.023 µg/mL (≈ 0.0548 µM)
IC50 Sarcoma tissue (SJSA-1) (SJSA-1 (sarcoma tissue)): 0.023 µg/mL (≈ 0.0548 µM)
IC50 A2780 (ovarian cancer) (A2780 (ovarian cancer)): 0.018 µg/mL (≈ 0.0429 µM)
IC50 Ovarian cancer tissue (A2780) (A2780 (ovarian cancer)): 0.018 µg/mL (≈ 0.0429 µM)
IC50 A549 (non-small cell lung cancer) [5]: 0.030 µg/mL (≈ 0.0715 µM)
IC50 Non-small cell lung cancer tissue (A549) [5]: 0.030 µg/mL (≈ 0.0715 µM)
IC50 SKBR3 (breast cancer tissue) [6]: 0.036 µg/mL (≈ 0.0858 µM)
IC50 Breast cancer tissue (SKBR3) [6]: 0.036 µg/mL (≈ 0.0858 µM)

CCCNCCc1c2c(nc3ccccc13)-c1cc3c(c(=O)n1C2)COC(=O)[C@]3(O)CC [D3]
Mouse weight (%) ([1]; Table 3): +7%
colo320 (colorectal cancer cell) growth rate (%) ([1]; Table 3): 872.19%
colo320 (colorectal cancer cell) mean tumor volume (mm^3) ([1]; Table 3): 966 mm^3
Mouse weight (%) ([1]; Table 8): +7%
colo320 (colorectal cancer cell) growth rate (%) ([1]; Table 8): 872.19%
colo320 (colorectal cancer cell) mean tumor volume (mm^3) ([1]; Table 8): 966 mm^3
Mouse weight (%) ([2]; Table 2): −5%
SJSA-1 (sarcoma tissue) mean tumor volume (mm^3) ([2]; Table 2): 1378.4 mm^3
SJSA-1 (sarcoma) Growth rate (%) ([2]; Table 2): 1192.71%
Mouse weight (%) ([2]; Table 7): −5%
SJSA-1 (sarcoma tissue) growth rate (%) ([2]; Table 7): 1192.71%
SJSA-1 (sarcoma tissue) mean tumor volume (mm^3) ([2]; Table 7): 1378.4 mm^3
IC50 Colorectal cancer tissue (colo320) [3]: 0.040 µg/mL (≈ 0.0923 µM)
MTD ([4]; Table 4): 25 mg/kg
MTD ([4]; Table 9): 25 mg/kg
IC50 SJSA-1 (sarcoma tissue) (SJSA-1 (sarcoma tissue)): 0.029 µg/mL (≈ 0.0669 µM)
IC50 Sarcoma tissue (SJSA-1) (SJSA-1 (sarcoma tissue)): 0.029 µg/mL (≈ 0.0669 µM)
IC50 A2780 (ovarian cancer) (A2780 (ovarian cancer)): 0.021 µg/mL (≈ 0.0484 µM)
IC50 Ovarian cancer tissue (A2780) (A2780 (ovarian cancer)): 0.021 µg/mL (≈ 0.0484 µM)
IC50 A549 (non-small cell lung cancer) [5]: 0.026 µg/mL (≈ 0.06 µM)
IC50 Non-small cell lung cancer tissue (A549) [5]: 0.026 µg/mL (≈ 0.06 µM)
IC50 SKBR3 (breast cancer tissue) [6]: 0.049 µg/mL (≈ 0.113 µM)
IC50 Breast cancer tissue (SKBR3) [6]: 0.049 µg/mL (≈ 0.113 µM)

CCCCNCCc1c2c(nc3ccccc13)-c1cc3c(c(=O)n1C2)COC(=O)[C@]3(O)CC [D4]
Mouse weight (%) ([1]; Table 3): +5%
colo320 (colorectal cancer cell) growth rate (%) ([1]; Table 3): 945.77%
colo320 (colorectal cancer cell) mean tumor volume (mm^3) ([1]; Table 3): 1047.5 mm^3
Mouse weight (%) ([1]; Table 8): +5%
colo320 (colorectal cancer cell) growth rate (%) ([1]; Table 8): 945.77%
colo320 (colorectal cancer cell) mean tumor volume (mm^3) ([1]; Table 8): 1047.5 mm^3
Mouse weight (%) ([2]; Table 2): −7%
SJSA-1 (sarcoma tissue) mean tumor volume (mm^3) ([2]; Table 2): 1269.4 mm^3
SJSA-1 (sarcoma) Growth rate (%) ([2]; Table 2): 1098.39%
Mouse weight (%) ([2]; Table 7): −7%
SJSA-1 (sarcoma tissue) growth rate (%) ([2]; Table 7): 1098.39%
SJSA-1 (sarcoma tissue) mean tumor volume (mm^3) ([2]; Table 7): 1269.4 mm^3
IC50 Colorectal cancer tissue (colo320) [3]: 0.078 µg/mL (≈ 0.174 µM)
MTD ([4]; Table 4): 30 mg/kg
MTD ([4]; Table 9): 30 mg/kg
IC50 SJSA-1 (sarcoma tissue) (SJSA-1 (sarcoma tissue)): 0.054 µg/mL (≈ 0.121 µM)
IC50 Sarcoma tissue (SJSA-1) (SJSA-1 (sarcoma tissue)): 0.054 µg/mL (≈ 0.121 µM)
IC50 A2780 (ovarian cancer) (A2780 (ovarian cancer)): 0.029 µg/mL (≈ 0.0648 µM)
IC50 Ovarian cancer tissue (A2780) (A2780 (ovarian cancer)): 0.029 µg/mL (≈ 0.0648 µM)
IC50 A549 (non-small cell lung cancer) [5]: 0.043 µg/mL (≈ 0.0961 µM)
IC50 Non-small cell lung cancer tissue (A549) [5]: 0.043 µg/mL (≈ 0.0961 µM)
IC50 SKBR3 (breast cancer tissue) [6]: 0.076 µg/mL (≈ 0.17 µM)
IC50 Breast cancer tissue (SKBR3) [6]: 0.076 µg/mL (≈ 0.17 µM)

CC[C@@]1(O)C(=O)OCc2c1cc1n(c2=O)Cc2c-1nc1ccccc1c2CCNCC(C)C [D5]
Mouse weight (%) ([1]; Table 3): +8%
colo320 (colorectal cancer cell) growth rate (%) ([1]; Table 3): 991.91%
colo320 (colorectal cancer cell) mean tumor volume (mm^3) ([1]; Table 3): 1098.6 mm^3
Mouse weight (%) ([1]; Table 8): +8%
colo320 (colorectal cancer cell) growth rate (%) ([1]; Table 8): 991.91%
colo320 (colorectal cancer cell) mean tumor volume (mm^3) ([1]; Table 8): 1098.6 mm^3
Mouse weight (%) ([2]; Table 2): −5%
SJSA-1 (sarcoma tissue) mean tumor volume (mm^3) ([2]; Table 2): 1443.2 mm^3
SJSA-1 (sarcoma) Growth rate (%) ([2]; Table 2): 1248.78%
Mouse weight (%) ([2]; Table 7): −5%
SJSA-1 (sarcoma tissue) growth rate (%) ([2]; Table 7): 1248.78%
SJSA-1 (sarcoma tissue) mean tumor volume (mm^3) ([2]; Table 7): 1443.2 mm^3
IC50 Colorectal cancer tissue (colo320) [3]: 0.029 µg/mL (≈ 0.0648 µM)
MTD ([4]; Table 4): 30 mg/kg
MTD ([4]; Table 9): 30 mg/kg
IC50 SJSA-1 (sarcoma tissue) (SJSA-1 (sarcoma tissue)): 0.012 µg/mL (≈ 0.0268 µM)
IC50 Sarcoma tissue (SJSA-1) (SJSA-1 (sarcoma tissue)): 0.012 µg/mL (≈ 0.0268 µM)
IC50 A2780 (ovarian cancer) (A2780 (ovarian cancer)): 0.014 µg/mL (≈ 0.0313 µM)
IC50 Ovarian cancer tissue (A2780) (A2780 (ovarian cancer)): 0.014 µg/mL (≈ 0.0313 µM)
IC50 A549 (non-small cell lung cancer) [5]: 0.019 µg/mL (≈ 0.0425 µM)
IC50 Non-small cell lung cancer tissue (A549) [5]: 0.019 µg/mL (≈ 0.0425 µM)
IC50 SKBR3 (breast cancer tissue) [6]: 0.013 µg/mL (≈ 0.029 µM)
IC50 Breast cancer tissue (SKBR3) [6]: 0.013 µg/mL (≈ 0.029 µM)
